Reference: PubChem BioAssay (NCI)
Values joined by “and” are separate entries in the source; they are usually repeats but may differ in a detail not shown here. Equal values may be shown once.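 Exposure lasted 48 hours, with cells grown in 96-well plates and compounds tested at five concentrations. Here, GI50 denotes the concentration required for 50% inhibition of growth. At the TGI there is no net growth.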

Key:
Assay in all cases: inhibition of tumour cell growth, NCI panel, 48 h
[1] = tested on: EKVX NSCLC
[2] = tested on: HCT-116 colon
[3] = tested on: HCT-15 colon
[4] = tested on: HT29 colon
[5] = tested on: K-562 leukemia
[6] = tested on: LOX IMVI melanoma
[7] = tested on: MOLT-4 leukemia
[8] = tested on: SK-MEL-5 melanoma
[9] = tested on: SN12C renal
[10] = tested on: T-47D breast

Compound	GI50 [1]	TGI [1] [µM]	GI50 [2]	TGI [2]	GI50 [3]	TGI [3]	GI50 [4]	TGI [4]	GI50 [5]	TGI [5] [µM]	GI50 [6]	TGI [6]	TGI [7]	TGI [8]	GI50 [9]	GI50 [10]	GI50 [7] [µM]	GI50 [8] [µM]	TGI [9]	TGI [10] [µM]
O=C(/C=C/c1cccc(S(=O)(=O)Nc2ccccc2)c1)NO	1.13 µM and 0.409 µM	> 100	0.206 µM and 0.0391 µM	1.18 µM	1.08 µM and 1.29 µM	> 48.9 µM and 68.5 µM	0.25 µM and 1.15 µM	15.9 µM and > 15.8 µM	0.325 µM and 0.0593 µM	> 100	0.259 µM and 0.293 µM	1.62 µM and 10.2 µM	> 29.9 µM	1.03 µM and 0.192 µM	1.68 µM and 0.244 µM	0.227 µM and 0.144 µM	–	–	–	–
COc1ccc(/C=C/C(=O)c2ccc(Nc3nc(Nc4ccc(F)cc4)nc(Nc4ccc(Cl)cc4)n3)cc2)cc1	> 100 µM	> 100	39.9 µM	> 100 µM	30.8 µM	> 100 µM	29.6 µM	> 100 µM	15.4 µM	> 100	> 100 µM	> 100 µM	> 100 µM	27.2 µM	> 100 µM	72.6 µM	11.9	1.03	> 100 µM	> 100
N#C/C(=C\c1ccc(F)cc1)n1nc2cccc(F)c2n1	3.8 µM	> 100	3.57 µM	> 100 µM	2.58 µM	> 100 µM	3.89 µM	> 100 µM	3.25 µM	> 100	2.92 µM	9.76 µM	> 100 µM	> 100 µM	3.84 µM	4.2 µM	3.09	3.76	> 100 µM	> 100
O=C(Cc1ccc(Nc2ccnc(C(F)(F)F)c2)cc1)N/N=C/c1ccccc1O	3.05 µM	> 60.9	1.92 µM	> 39.6 µM	0.634 µM	> 69.5 µM	6.53 µM	56 µM	2.74 µM	20.1	1.34 µM	15.9 µM	7.79 µM	11.1 µM	2.9 µM	3.26 µM	0.904	2.58	> 58.6 µM	17.7
NS(=O)(=O)c1ccc(N=C2C(=O)Nc3ccccc32)cc1	–	> 100	–	> 100 µM	–	> 100 µM	–	> 100 µM	–	> 100	–	> 100 µM	> 100 µM	> 100 µM	–	–	–	–	> 100 µM	> 100
CCOC(=O)Nc1ccc2c(c1)N(C(=O)CCN(CC)CC)c1ccccc1S2	74.2 µM	141	12.5 µM	> 31.6 µM and 39.9 µM	35.7 µM	> 79.5 µM and 99.4 µM	29.6 µM	33.9 µM and 96.4 µM	19.7 µM	> 81.8	–	37.6 µM and 67 µM	71.1 µM and 44.3 µM	34.3 µM and 100 µM	24.3 µM	–	13.7	36.1	> 76.8 µM and 85.3 µM	87.9
Cc1cc(=O)oc2cc(OC(=O)Nc3ccccc3)ccc12	–	> 100	–	> 100 µM	–	> 100 µM	–	> 100 µM	–	> 100	–	> 100 µM	> 100 µM	> 100 µM	–	–	–	–	> 100 µM	> 100
